Tests used:
[1] = Antagonistic activity was measured by the inhibition of Gamma-aminobutyric acid type B receptor binding to rat brain synaptosomes; format: subcellular
[2] = species: Cavia porcellus; test: Antagonistic activity was measured by the reversal inhibition of EFS stimulated neuronal cholinergic contraction of guinea pig tracheal rings at 300 uM; format: functional; conditions: Trachea
[3] = species: Cavia porcellus; test: Antagonistic activity was measured by the reversal inhibition of EFS stimulated neuronal cholinergic contraction of guinea pig tracheal rings; format: functional; conditions: Trachea

IC50 [1]	IC50 [3]	SMILES	inhibition at 300 µM [2]
1.1 µM	–	CC1(C)CO[C@@H](CC(=O)O)CN1	–
11 µM	–	O=C(O)CC1CNC2(CCCC2)CO1 (racemic)	97%
3 µM	4.6 µM	CC1(C)COC(CC(=O)O)CN1 (racemic)	–
37 µM	–	O=C(O)CC1CNC2(CC2)CO1 (racemic)	–
2 µM	4.5 µM	CC1(CO)COC(CC(=O)O)CN1 (racemic; form 1)	–
19 µM	–	CCC1(CO)COC(CC(=O)O)CN1 (racemic; form 1)	99%
5 µM	–	CC1(CO)COC(CC(=O)O)CN1 (racemic; form 2)	–
100 µM	–	CCC1(CO)COC(CC(=O)O)CN1 (racemic; form 2)	–
> 100 µM	–	CC1(C)COC(CC(=O)O)CN1 (stereo in doubt; 24)	–

Continued, molecule first:

SMILES	IC50 [1]	IC50 [3]	inhibition at 300 µM [2]
CC[C@@H]1CO[C@@H](CC(=O)O)CN1	10 µM	–	95%
CC[C@H]1CO[C@H](CC(=O)O)CN1	> 100 µM	–	–
CC[C@@H]1CO[C@H](CC(=O)O)CN1	> 100 µM	–	–
CCOC(OCC)P(=O)(O)CCCN	62 µM	65 µM	50%
O=C(O)CC1CNCCO1 (stereo not given)	> 100 µM	–	46%
CC1COC(CC(=O)O)CN1 (racemic; form 1)	37 µM	–	76%
CC1COC(CC(=O)O)CN1 (racemic; form 2)	9 µM	–	–

From ChEMBL document CHEMBL1129107, “Substituted morpholine-2S-acetic acid derivatives: Sch 50911 and related compounds as novel GABAB antagonists” (Bioorg Med Chem Lett, 1996)
